In US9907857B2, “Peptide having cell membrane penetrating activity” (EWHA UNIVERSITY-INDUSTRY COLLABORATION FOUNDATION, priority 2006, dated 2018):

Key:
Type in all cases: cell-based
HeLa cells [1] = experiment: Intracellular translocation of alanine substituents of TCTP(1-9), microplate fluorescence reader; details: for decline in uptake, fluorescence intensity of TCTP (1-9) at 100 μM set to 100%: sensitivity 75 (FIG. 5); for penetrating activity of alanine substituents compared with WT TCTP(1-9): HeLa
Method: N-terminus of each peptide was labeled with fluorescence dye, rhodamine and C-terminus was protected. Peptide purity (>95%) was determined by HPLC. Synthesis of peptides of present invention was requested to PEPTRON, Inc.
HeLa cell line was propagated in DMEM supplemented with 10% FBS and 100 units/mL penicillin-streptomycin. Cells were grown in a 5% CO2 incubator at 37° C.
(§1) HeLa cells were cultured in 48-well plate until they were 70˜80% grown up before a day of the experiment. The cells were washed with DMEM of 37° C. twice, and TCTP-derived peptides synthesized in Example 4-1) were treated to the culture medium in a dose dependent manner (0, 1, 10, 100 μM), then the cells was incubated for 15 minutes or 2 hours in an CO2 incubator at 37° C.
After the incubation, the cells were washed in cool PBS three times and immediately measured by a microplate fluorescence reader at emission 530 nm and excitation 590 nm for a measurement of rhodamine of intracellular uptake marker. The sensitivity of reader was set at 100 as a basic, but was lowered to 75 if fluorescent signals were strong. All experiments were conducted in triplet repeats for reproducibility (FIG. 5 and FIG. 6).
Meanwhile, when the sensitivity of KC4 plate reader was set down to 75, we could not analyze the result of cell penetrating activity at relatively low concentration of 1 or 10 μM, so sensitivity of reader was fixed at 100 (FIG. 6). At this time, because fluorescence intensity at 100 μM was very strong, we could not express in a same graph.

HeLa cells [2] = experiment: Intracellular translocation of TCTP-derived peptide by fluorescence microscope; details: 2 hours
Method: HeLa cells were treated with TCTP (1-9)(SEQ ID No.: 2) at a concentration of 10 μM and 100 μM by the same method of Example 2-2). […] After washing, cells on cover glass attached slide glass were observed (FIG. 4).

HeLa cells [3] = experiment: Cell penetrating efficiency of rhodamine-labelled TCTP-derived peptides, microplate fluorescence reader; details: for intracellular translocation, dependence on concentration: 0-100 μM, 15 minutes or 2 hours; for efficiency versus control peptide TAT at low concentration: 1 μM and 10 μM; for cell penetrating activity / translocation efficiency in comparison with TAT (words): HeLa, rhodamine-labelled peptides, overall
Method: N-terminus of each peptides was labeled with fluorescence dye, rhodamine and C-terminus was protected. Peptide purity (>95%) was determined by HPLC. Synthesis of the peptides was requested to PEPTRON, Inc.
HeLa cell line (ATCC) was propagated in DMEM (GIBCO) supplemented with 10% FBS (GIBCO) and 100 units/mL penicillin-streptomycin. Cells were grown in a 5% CO2 incubator at 37° C.
as §1, with “2-1)” for “4-1)”, “1, 5,” for “1,”, “10, 50,” for “10,”
After the incubation, the cells were washed in cool PBS three times and immediately measured by a microplate fluorescence reader (BIO-TEK instruments, Inc., Vermont, USA) at emission 530 nm and excitation 590 nm for a measurement of rhodamine of intracellular uptake marker. The sensitivity of reader was set at 100 as a basic mode, but was lowered to 75 if the fluorescent signals were too strong. All experiments were conducted in triplet repeats for reproducibility (FIG. 2 and FIG. 3).

MIIYADLIS (mutant peptide based on human sequence; (1)..(9) TCTP(1-9)R5A) [SEQ ID No.: 12]
decline in uptake, fluorescence intensity of TCTP (1-9) at 100 μM set to 100% (HeLa cells [1]; 2 hours): about 50% | penetrating activity of alanine substituents compared with WT TCTP(1-9) (HeLa cells [1]): still maintained in translocation activity

MIIYRALIS (mutant peptide based on human sequence; (1)..(9) TCTP(1-9)D6A) [SEQ ID No.: 13]
penetrating activity, fluorescence intensity of TCTP (1-9) at 10 μM set to 1 (HeLa cells [1]; 10 μM, 2 hours, sensitivity 100 (FIG. 6)): 2.5 times | decline in uptake, fluorescence intensity of TCTP (1-9) at 100 μM set to 100% (HeLa cells [1]; 2 hours): about 50% | penetrating activity of alanine substituents compared with WT TCTP(1-9) (HeLa cells [1]): still maintained in translocation activity

MIIYRDLAS [SEQ ID No.: 14]
decline in uptake, fluorescence intensity of TCTP (1-9) at 100 μM set to 100% (HeLa cells [1]; 2 hours): about 50%

MIIYRDLAS [SEQ ID No.: 15] (mutant peptide based on human sequence; (1)..(9) TCTP(1-9)I8A)
decline in uptake, fluorescence intensity of TCTP (1-9) at 100 μM set to 100% (HeLa cells [1]; 2 hours): about 50%

MIIYRDLIA (mutant peptide based on human sequence; (1)..(9) TCTP(1-9)S9A) [SEQ ID No.: 16]
decline in uptake, fluorescence intensity of TCTP (1-9) at 100 μM set to 100% (HeLa cells [1]; 2 hours): about 50% | penetrating activity of alanine substituents compared with WT TCTP(1-9) (HeLa cells [1]): still maintained in translocation activity

MIIYRDLIS ((1)..(9) 1-9 amino acid residue of TCTP; listed as Homo sapiens) [SEQ ID No.: 2, Residues of TCTP(1-9)]
intracellular translocation (fluorescence microscope) (HeLa cells [2]; 10 μM): weakly translocated | intracellular translocation (fluorescence microscope) (HeLa cells [2]; 100 μM): strongly | intracellular distribution (fluorescence microscope) (HeLa cells [2]; HeLa): distributed widely in cytoplasm and nucleus of the cell | intracellular translocation, dependence on concentration (HeLa cells [3]): translocated not in 1-10 μM but in 50-100 μM | efficiency versus control peptide TAT at low concentration (HeLa cells [3]): lower efficiency than control peptide, TAT | cell penetrating activity / translocation efficiency in comparison with TAT (words) (HeLa cells [3]): excellent cell penetrating activity in comparison with conventional TAT | cell penetrating activity / translocation efficiency in comparison with TAT (words) (HeLa cells [3]; listed as TCTP (1-9)): superior ability than well-known PTD, TAT in their translocation efficiency | cell penetrating activity / translocation efficiency in comparison with TAT (words) (HeLa cells [3]; listed as TCTP(1-9)): more excellent penetrating activity than well-known TAT(47-58) peptide

MIIYRDLISH ((1)..(10) 1-10 amino acid residue of TCTP; listed as Homo sapiens) [SEQ ID No.: 1, Residues of TCTP(1-10)]
intracellular translocation, dependence on concentration (HeLa cells [3]): translocated not in 1-10 μM but in 50-100 μM | efficiency versus control peptide TAT at low concentration (HeLa cells [3]): lower efficiency than control peptide, TAT | cell penetrating activity, SEQ ID No.: 1 versus SEQ ID No.: 2 (HeLa cells [3]; 50 μM (FIGS. 2 & 3)): more effective than SEQ ID No.: 2 | concentration at which translocation was saturated (HeLa cells [3]; 2 hour treatment (FIG. 3)): 50 µM | cell penetrating activity / translocation efficiency in comparison with TAT (words) (HeLa cells [3]): excellent cell penetrating activity in comparison with conventional TAT | cell penetrating activity / translocation efficiency in comparison with TAT (words) (HeLa cells [3]; listed as TCTP (1-10)): superior ability than well-known PTD, TAT in their translocation efficiency | cell penetrating activity compared to that of TAT (HeLa cells [3]; treated for 15 minutes in 50 μM): over 3 times | cell penetrating activity compared to that of TAT (HeLa cells [3]; treated for 15 minutes in 100 μM): 6 times | cell penetrating activity compared to that of TAT (HeLa cells [3]; treatment for 2 hours, 50 μM): about 29 times | cell penetrating activity compared to that of TAT (HeLa cells [3]; treatment for 2 hours, 100 μM): ~30 times
